The target of this assay is T1, recombinant His-tagged cytoplasmic domains of TRKA receptor (NTRK1, PV3144, aa 441-796) (Homo sapiens, UniProt P04629).
T1 construct: aa 441-796; His; purchased Invitrogen PV3144
T1 sequence (P04629 441-796): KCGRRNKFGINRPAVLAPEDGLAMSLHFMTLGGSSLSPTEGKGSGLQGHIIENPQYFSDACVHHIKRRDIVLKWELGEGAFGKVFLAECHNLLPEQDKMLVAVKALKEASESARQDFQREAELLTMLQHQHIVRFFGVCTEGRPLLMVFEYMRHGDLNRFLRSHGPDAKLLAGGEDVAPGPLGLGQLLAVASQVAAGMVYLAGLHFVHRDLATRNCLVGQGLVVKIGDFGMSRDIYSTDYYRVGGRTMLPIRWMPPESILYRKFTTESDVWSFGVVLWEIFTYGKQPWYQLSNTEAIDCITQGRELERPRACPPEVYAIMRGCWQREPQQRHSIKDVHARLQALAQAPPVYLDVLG
Description: Isolated TRK enzyme assay (HTRF KinEASE-TK, PV3144 TrkA enzyme assay). It is filed as biochemical. The following applies: 4 nM enzyme, 40 uM ATP, 35 min, arithmetic mean where more than one reading. The essentials: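 Enzyme and ATP were preincubated with compound for 20 min at room temperature in buffer with 10 mM MgCl and 2 mM DTT. TK-substrate-Biotin was then added (1 uM final) and the reaction run for an enzyme-specific optimized time. Phosphorylation was read by HTRF, and IC50 values came from sigmoid fits of percent inhibition normalized to plate controls, averaged over replicate readings.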
Broadly, the IC50 is the point on the concentration scale where inhibition reaches its midpoint. On to `NC(=O)c1cc(-c2ccc(N)nc2)ccc1OC1CCN(C(=O)Cc2ccc(OC(F)(F)F)cc2)CC1` [Example 104, 5-(6-aminopyridin-3-yl)-2-[(1-{[4-(trifluoromethoxy)phenyl]acetyl}piperidin-4-yl)oxy]benzamide], for which the IC50 amounted to 4 nM. As to `Cn1cc(-c2ccc(O[C@@H]3CCN(C(=O)Cc4ccc(OC(F)(F)F)cc4)C[C@@H]3F)c(C(N)=O)c2)cn1` [Example 74, 2-{[(3S,4R)-3-fluoro-1-{[4-(trifluoromethoxy)phenyl]acetyl}piperidin-4-yl]oxy}-5-(1-methyl-1H-pyrazol-4-yl)benzamide], the IC50 worked out at 0.9 nM. In the case of `NC(=O)c1cc(-c2cc[nH]n2)ccc1OC1CCN(C(=O)Cc2ccc(OC(F)(F)F)cc2)CC1` [Example 177, 5-(1H-pyrazol-3-yl)-2-[(1-{[4-(trifluoromethoxy)phenyl]acetyl}piperidin-4-yl)oxy]benzamide], the half-inhibitory concentration (IC50) was found to be 12.3 nM.

Turning to `NC(=O)c1cc(-c2cnn(C3CS(=O)(=O)C3)c2)cnc1O[C@H]1CCN(C(=O)Cc2ccc(OC(F)(F)F)cc2)C[C@H]1F` [Example 22, 5-[1-(1,1-dioxidothietan-3-yl)-1H-pyrazol-4-yl]-2-{[(3R,4S)-3-fluoro-1-{[4-(trifluoromethoxy)phenyl]acetyl}piperidin-4-yl]oxy}pyridine-3-carboxamide], the half-maximal inhibitory concentration (IC50) was 1.2 nM.

Take `NC(=O)c1cc(-c2cscn2)ccc1OC1CCN(C(=O)Cc2ccc(OC(F)(F)F)cc2)CC1` [Example 101, 5-(1,3-thiazol-4-yl)-2-[(1-{[4-(trifluoromethoxy)phenyl]acetyl}piperidin-4-yl)oxy]benzamide]: the concentration for half-maximal inhibition (IC50) came to 9.4 nM. The figure for `CC1CC(Oc2ccc(-c3cn(C)cn3)cc2C(N)=O)CCN1C(=O)Cc1ccc(OC(F)(F)F)cc1` (racemic) [Example 51, Racemic 2-((2-methyl-1-(2-(4-(trifluoromethoxy)phenyl)acetyl)piperidin-4-yl)oxy)-5-(1-methyl-1H-imidazol-4-yl)benzamide] is 6.1 nM.

`Cn1cnc(-c2ccc(O[C@@H]3[C@@H]4CC[C@H]3CN(C(=O)Cc3ccc(OC(F)(F)F)cc3)C4)c(C(N)=O)c2)c1` [Example 47, 5-(1-methyl-1H-imidazol-4-yl)-2-(((1R,5S,8s)-3-(2-(4-(trifluoromethoxy)phenyl)acetyl)-3-azabicyclo[3.2.1]octan-8-yl)oxy)benzamide]: the IC50 was determined as 5.2 nM. Consider `Cn1cnc(-c2ccc(OC3CCN(C(=O)Cc4ccc(OC(F)(F)F)cc4)CC3(C)C)c(C(N)=O)c2)c1` (racemic) [Example 49, Racemic 2-((3,3-dimethyl-1-(2-(4-(trifluoromethoxy)phenyl)acetyl)piperidin-4-yl)oxy)-5-(1-methyl-1H-imidazol-4-yl)benzamide], for which the half-inhibitory concentration (IC50) is 3.7 nM. The result for `NC(=O)c1cc(-c2cn[nH]c2)ncc1O[C@H]1CCN(C(=O)Cc2ccc(OC(F)(F)F)cc2)C[C@@H]1F` [Example 86, 5-{[(3S,4S)-3-fluoro-1-{[4-(trifluoromethoxy)phenyl]acetyl}piperidin-4-yl]oxy}-2-(1H-pyrazol-4-yl)pyridine-4-carboxamide] reads 10.5 nM; that for `Cn1cnc(-c2ccc(O[C@@H]3CCN(C(=O)Cc4ccc(OC5CC5)cc4)C[C@H]3F)c(C(N)=O)c2)c1` (racemic) [Example 44], 3.8 nM. Take `Cc1nc(-c2cnc(O[C@H]3CCN(C(=O)Cc4ccc(OC(F)(F)F)cc4)C[C@H]3F)c(C(N)=O)c2)c[nH]1` [Example 118, 2-{[(3R,4S)-3-fluoro-1-{[4-(trifluoromethoxy)phenyl]acetyl}piperidin-4-yl]oxy}-5-(2-methyl-1H-imidazol-4-yl)pyridine-3-carboxamide]: the IC50 came out at 1.1 nM. The figure for `NC(=O)c1cc(-c2cn[nH]c2)cnc1O[C@@H]1CCN(C(=O)Cc2ccc(OC3CC3)cn2)C[C@@H]1F` [Example 78, 2-{[(3S,4R)-1-{[5-(cyclopropyloxy)pyridin-2-yl]acetyl}-3-fluoropiperidin-4-yl]oxy}-5-(1H-pyrazol-4-yl)pyridine-3-carboxamide] is 2.6 nM; for `NC(=O)c1cc(-c2cn(CCO)cn2)ccc1OC1CCN(C(=O)Cc2ccc(OC(F)(F)F)cc2)CC1` [Example 115, 5-[1-(2-hydroxyethyl)-1H-imidazol-4-yl]-2-[(1-{[4-(trifluoromethoxy)phenyl]acetyl}piperidin-4-yl)oxy]benzamide] it is 4.4 nM; for `Cn1cc(-c2cnc(O[C@H]3CCN(C(=O)Cc4ccc(OC(F)(F)F)cc4)C[C@H]3F)c(C(N)=O)c2)cn1` [Example 4, 2-{[(3R,4S)-3-fluoro-1-{[4-(trifluoromethoxy)phenyl]acetyl}piperidin-4-yl]oxy}-5-(1-methyl-1H-pyrazol-4-yl)pyridine-3-carboxamide] it is 1.2 nM. The result for `CS(=O)(=O)Cn1cc(-c2cnc(O[C@H]3CCN(C(=O)Cc4ccc(OC(F)(F)F)c(F)c4)C[C@@H]3F)c(C(N)=O)c2)cn1` [Example 26, 2-{[(3S,4S)-3-fluoro-1-{[3-fluoro-4-(trifluoromethoxy)phenyl]acetyl}piperidin-4-yl]oxy}-5-{1-[(methylsulfonyl)methyl]-1H-pyrazol-4-yl}pyridine-3-carboxamide] reads 8.9 nM; that for `Cc1nc[nH]c1-c1ccc(OC2CCN(C(=O)Cc3ccc(OC(F)(F)F)cc3)CC2)c(C(N)=O)c1` [Example 99, 5-(4-methyl-1H-imidazol-5-yl)-2-[(1-{[4-(trifluoromethoxy)phenyl]acetyl}piperidin-4-yl)oxy]benzamide], 7.7 nM; that for `NC(=O)c1cc(-c2cn[nH]c2)cnc1O[C@@H]1CCN(C(=O)Cc2ccc(OC(F)(F)F)cc2)C[C@@H]1F` [Example 70, 2-{[(3S,4R)-3-fluoro-1-{[4-(trifluoromethoxy)phenyl]acetyl}piperidin-4-yl]oxy}-5-(1H-pyrazol-4-yl)pyridine-3-carboxamide], 1.6 nM. The result for `NC(=O)c1cc(-c2cn[nH]c2)ccc1O[C@@H]1CCN(C(=O)Cc2ccc(OC3CC3)cn2)C[C@@H]1F` [Example 83, 2-{[(3S,4R)-1-{[5-(cyclopropyloxy)pyridin-2-yl]acetyl}-3-fluoropiperidin-4-yl]oxy}-5-(1H-pyrazol-4-yl)benzamide] reads 1.4 nM; that for `Cn1cc(-c2ccc(OC3CCN(C(=O)Cc4ccc(OC(F)(F)F)c(F)c4)CC3)c(C(N)=O)c2)cn1` [Example 111, 2-[(1-{[3-fluoro-4-(trifluoromethoxy)phenyl]acetyl}piperidin-4-yl)oxy]-5-(1-methyl-1H-pyrazol-4-yl)benzamide], 4.5 nM. With `Cc1nc(OC2CCN(C(=O)Cc3ccc(OC(F)(F)F)cc3)CC2)c(C(N)=O)cc1-c1cn(C)cn1` [Example 69, 6-methyl-5-(1-methyl-1H-imidazol-4-yl)-2-[(1-{[4-(trifluoromethoxy)phenyl]acetyl}piperidin-4-yl)oxy]pyridine-3-carboxamide], the IC50 worked out at 6.1 nM. The figure for `NC(=O)c1cc(-c2cn[nH]c2)ncc1O[C@@H]1CCN(C(=O)Cc2ccc(OC(F)(F)F)cc2)C[C@@H]1F` [Example 85, 5-{[(3S,4R)-3-fluoro-1-{[4-(trifluoromethoxy)phenyl]acetyl}piperidin-4-yl]oxy}-2-(1H-pyrazol-4-yl)pyridine-4-carboxamide] is 1.7 nM. The result for `Cc1nc[nH]c1-c1cnc(OC2CCN(C(=O)Cc3ccc(OC(F)(F)F)cc3)CC2)c(C(N)=O)c1` [Example 179, 5-(4-methyl-1H-imidazol-5-yl)-2-[(1-{[4-(trifluoromethoxy)phenyl]acetyl}piperidin-4-yl)oxy]pyridine-3-carboxamide] reads 13.2 nM.

With `Cc1n[nH]c(C)c1-c1cnc(OC2CCN(C(=O)Cc3ccc(OC(F)(F)F)cc3)CC2)c(C(N)=O)c1` [Example 59, 5-(3,5-dimethyl-1H-pyrazol-4-yl)-2-[(1-{[4-(trifluoromethoxy)phenyl]acetyl}piperidin-4-yl)oxy]pyridine-3-carboxamide], the IC50 is 10 nM. The result for `CC(N)c1ccc(-c2cnc(OC3CCN(C(=O)Cc4ccc(OC(F)(F)F)cc4)CC3)c(C(N)=O)c2)cc1` (stereo in doubt) [Example 96, 5-{4-[(1S)-1-aminoethyl]phenyl}-2-[(1-{[4-(trifluoromethoxy)phenyl]acetyl}piperidin-4-yl)oxy]pyridine-3-carboxamide] reads 5 nM; that for `Cc1nnc(-c2ccc(OC3CCN(C(=O)Cc4ccc(OC(F)(F)F)cc4)CC3)c(C(N)=O)c2)s1` [Example 147, 5-(5-methyl-1,3,4-thiadiazol-2-yl)-2-[(1-{[4-(trifluoromethoxy)phenyl]acetyl}piperidin-4-yl)oxy]benzamide], 12.6 nM.

The record behind these values is US20170305857A1, “N-ACYLPIPERIDINE ETHER TROPOMYOSIN-RELATED KINASE INHIBITORS” (Pfizer Limited, priority 2014, published 2017).
